The results in this text go back to patent US10065973B2, “Substituted aminothiazolopyrimidinedione for the treatment and prophylaxis of virus infection” (Hoffmann-La Roche Inc., priority 2016, dated 2018).

For orientation: EC50 means the concentration that produces a half-maximal response. Lower therefore signals a more potent agent.

For this assay, the target named is human TLR7 (Homo sapiens (Human), UniProt Q9NYK1). The assay is described as follows: HEK293-Blue-hTLR-7 cells assay (SEAP reporter). Particulars: 20 hours incubation. The format is cell-based. The text has this: HEK293-Blue-hTLR-7 Cells Assay: A stable HEK293-Blue-hTLR-7 cell line was purchased from InvivoGen (Cat.#: hkb-htlr7, San Diego, Calif., USA). These cells were designed for studying the stimulation of human TLR7 by monitoring the activation of NF-κB. A SEAP (secreted embryonic alkaline phosphatase) reporter gene was placed under the control of the IFN-β minimal promoter fused to five NF-κB and AP-1-binding sites. The SEAP was induced by activating NF-κB and AP-1 via stimulating HEK-Blue hTLR7 cells with TLR7 ligands. Therefore the reporter expression was regulated by the NF-κB promoter upon stimulation of human TLR7. The cell culture supernatant SEAP reporter activity was determined using QUANTI-Blue™ kit (Cat.#: rep-qb1, Invivogen, San Diego, Ca, USA) at a wavelength of 640 nm, a detection medium that turns purple to blue in the presence of alkaline phosphatase. HEK293-Blue-hTLR7 cells were incubated at a density of 250,000˜450,000 cells/mL in a volume of 180 μL in a 96-well plate in Dulbecco's Modified Eagle's medium (DMEM) containing 4.5 g/l glucose, 50 U/ml penicillin, […] streptomycin, […] Normocin, 2 mM L-glutamine, 10% (v/v) heat-inactivated fetal bovine serum for 24 h. Then the HEK293-Blue-hTLR-7 cells were incubated with addition of 20 μL test compound in a serial dilution in the presence of final DMSO at 1% and perform incubation under 37° C. in a CO2 incubator for 20 hours. Then 20 μL of the supernatant from each well was incubated with 180 μL Quanti-blue substrate solution at 37° C. for 1-3 hours and the absorbance was read at 620˜655 nm using a spectrophotometer.
Sequence of human TLR7 (Q9NYK1 27-1049): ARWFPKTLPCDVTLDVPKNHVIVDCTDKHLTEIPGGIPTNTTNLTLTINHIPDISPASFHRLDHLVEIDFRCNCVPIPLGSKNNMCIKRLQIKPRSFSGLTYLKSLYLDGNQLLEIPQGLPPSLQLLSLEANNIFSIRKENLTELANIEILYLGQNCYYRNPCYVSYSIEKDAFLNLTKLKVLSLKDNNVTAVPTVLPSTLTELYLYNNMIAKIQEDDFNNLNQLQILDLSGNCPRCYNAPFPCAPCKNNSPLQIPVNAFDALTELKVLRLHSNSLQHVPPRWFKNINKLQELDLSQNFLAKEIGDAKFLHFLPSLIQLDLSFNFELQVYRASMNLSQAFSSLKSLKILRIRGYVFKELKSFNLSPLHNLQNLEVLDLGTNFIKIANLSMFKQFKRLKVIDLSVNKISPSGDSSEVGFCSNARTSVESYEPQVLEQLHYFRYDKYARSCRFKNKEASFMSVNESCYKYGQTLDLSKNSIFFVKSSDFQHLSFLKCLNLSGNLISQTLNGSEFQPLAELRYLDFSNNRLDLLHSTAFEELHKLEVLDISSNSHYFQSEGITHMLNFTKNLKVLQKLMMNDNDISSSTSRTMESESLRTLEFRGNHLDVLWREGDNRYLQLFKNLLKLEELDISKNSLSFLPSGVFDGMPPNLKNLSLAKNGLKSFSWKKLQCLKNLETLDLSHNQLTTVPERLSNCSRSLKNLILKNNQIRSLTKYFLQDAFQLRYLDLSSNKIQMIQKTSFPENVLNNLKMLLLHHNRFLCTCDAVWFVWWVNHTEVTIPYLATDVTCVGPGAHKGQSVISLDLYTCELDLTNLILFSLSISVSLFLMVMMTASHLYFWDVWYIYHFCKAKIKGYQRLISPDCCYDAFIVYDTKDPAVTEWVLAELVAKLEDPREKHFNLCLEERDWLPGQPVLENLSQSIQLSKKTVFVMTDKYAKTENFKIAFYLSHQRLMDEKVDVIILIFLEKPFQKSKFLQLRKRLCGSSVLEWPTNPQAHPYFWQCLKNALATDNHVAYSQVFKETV
In turn, `CC[C@H](OC(C)=O)[C@@H]1C[C@@H]([C@@H](C)O)[C@H](n2c(=O)sc3c(=O)[nH]c(N)nc32)O1` [Example 17, [(1S)-1-[(2S,4S,5R)-5-(5-Amino-2,7-dioxo-6H-thiazolo[4,5-d]pyrimidin-3-yl)-4-[(1R)-1-hydroxyethyl]tetrahydrofuran-2-yl]propyl] acetate] returned an EC50 of 15 µM.

In turn, `CC[C@H](O)[C@@H]1C[C@@H]([C@H](O)c2ccccc2)[C@H](n2c(=O)sc3c(=O)[nH]c(N)nc32)O1` (single isomer, unassigned) [Example 18-A] came in with a concentration giving a half-maximal response (EC50) of 10.4 µM.

Compound `CC[C@H](O)[C@@H]1C[C@@H]([C@H](C)OC(C)=O)[C@H](n2c(=O)sc3c(=O)[nH]c(N)nc32)O1` [Example 9-B, [(1S)-1-[(2R,3S,5S)-2-(5-amino-2,7-dioxo-6H-thiazolo[4,5-d]pyrimidin-3-yl)-5-[(1S)-1-hydroxypropyl]tetrahydrofuran-3-yl]ethyl] acetate] came in with an EC50 of 9.3 µM.

Consider `Nc1nc2c(sc(=O)n2[C@@H]2O[C@H](CO)C[C@H]2[C@H](O)c2ccccn2)c(=O)[nH]1` [Example 7, 5-Amino-3-[(2R,3S,5S)-5-(hydroxymethyl)-3-[(S)-hydroxy(2-pyridyl)methyl]tetrahydrofuran-2-yl]-6H-thiazolo[4,5-d]pyrimidine-2,7-dione], for which the EC50 worked out at 225 µM.

The compound `CC[C@H](O)[C@@H]1C[C@@H]([C@H](C)O)[C@H](n2c(=O)sc3c(=O)[nH]c(N)nc32)O1` [Example 10-B, 5-amino-3-[(2R,3S,5S)-3-[(1S)-1-hydroxyethyl]-5-[(1S)-1-hydroxypropyl]tetrahydrofuran-2-yl]-6H-thiazolo[4,5-d]pyrimidine-2,7-dione] had an EC50 of 35 µM.

On to `CCOC(=O)O[C@H](C)[C@@H]1C[C@@H]([C@@H](O)CC)O[C@H]1n1c(=O)sc2c(=O)[nH]c(N)nc21` [Example 11, [(1R)-1-[(2R,3S,5S)-2-(5-Amino-2,7-dioxo-6H-thiazolo[4,5-d]pyrimidin-3-yl)-5-[(1S)-1-hydroxypropyl]tetrahydrofuran-3-yl]ethyl] ethyl carbonate], for which the response was half-maximal at 26 µM (EC50).

In turn, `CC(C)(O)[C@@H]1C[C@@H](CO)O[C@H]1n1c(=O)sc2c(=O)[nH]c(N)nc21` [Example 8, 5-Amino-3-[(2R,3S,5S)-5-(hydroxymethyl)-3-(1-hydroxy-1-methyl-ethyl)tetrahydrofuran-2-yl]-6H-thiazolo[4,5-d]pyrimidine-2,7-dione] showed an EC50 of 23 µM.

In turn, `CC[C@H](O)[C@@H]1C[C@@H]([C@@H](C)OCc2ccccc2)[C@H](n2c(=O)sc3c(=O)[nH]c(N)nc32)O1` [Example 14, 5-Amino-3-[(2R,3S,5S)-3-[(1R)-1-benzyloxyethyl]-5-[(1S)-1-hydroxypropyl]tetrahydrofuran-2-yl]-6H-thiazolo[4,5-d]pyrimidine-2,7-dione] returned a 50% effective concentration (EC50) of 60 µM.

For the compound `CC[C@H](O)[C@@H]1C[C@@H]([C@@H](C)OC(C)=O)[C@H](n2c(=O)sc3c(=O)[nH]c(N)nc32)O1` [Example 9-A, [(1R)-1-[(2R,3S,5S)-2-(5-Amino-2,7-dioxo-6H-thiazolo[4,5-d]pyrimidin-3-yl)-5-[(1S)-1-hydroxypropyl]tetrahydrofuran-3-yl]ethyl] acetate], the EC50 was found to be 8.4 µM.

On to `CC[C@H](O)[C@@H]1C[C@@H]([C@H](C)OC)[C@H](n2c(=O)sc3c(=O)[nH]c(N)nc32)O1` [Example 16, 5-Amino-3-[(2R,3S,5S)-5-[(1S)-1-hydroxypropyl]-3-[(1S)-1-methoxyethyl]tetrahydrofuran-2-yl]-6H-thiazolo[4,5-d]pyrimidine-2,7-dione], for which the EC50 came out at 35 µM.

In the case of `CCC(O)[C@@H]1C[C@@H](CO)O[C@H]1n1c(=O)sc2c(=O)[nH]c(N)nc21` (single isomer, unassigned) [Example 3-A], the EC50 is 111 µM.

The compound `CC[C@H](O)[C@@H]1C[C@@H]([C@@H](C)O)[C@H](n2c(=O)sc3c(=O)[nH]c(N)nc32)O1` [Example 10-A, 5-Amino-3-[(2R,3S,5S)-3-[(1R)-1-hydroxyethyl]-5-[(1S)-1-hydroxypropyl]tetrahydrofuran-2-yl]-6H-thiazolo[4,5-d]pyrimidine-2,7-dione] returned an EC50 of 2.7 µM.

Compound `CC[C@H](O)[C@@H]1C[C@@H](C(C)(C)O)[C@H](n2c(=O)sc3c(=O)[nH]c(N)nc32)O1` [Example 20, 5-Amino-3-[(2R,3S,5S)-3-(1-hydroxy-1-methyl-ethyl)-5-[(1S)-1-hydroxypropyl]tetrahydrofuran-2-yl]-6H-thiazolo[4,5-d]pyrimidine-2,7-dione] returned an EC50 of 3 µM.

The compound `Nc1nc2c(sc(=O)n2[C@@H]2O[C@H](CO)C[C@H]2C(O)C2CC2)c(=O)[nH]1` (single isomer, unassigned) [Example 2-A] registered an EC50 of 156 µM.

The compound `C=CCO[C@H](C)[C@@H]1C[C@@H]([C@@H](O)CC)O[C@H]1n1c(=O)sc2c(=O)[nH]c(N)nc21` [Example 15, 3-[(2R,3S,5S)-3-[(1R)-1-Allyloxyethyl]-5-[(1S)-1-hydroxypropyl]tetrahydrofuran-2-yl]-5-amino-6H-thiazolo[4,5-d]pyrimidine-2,7-dione] returned an EC50 of 68 µM.

`CC[C@H](O)[C@@H]1C[C@@H](C(C)(C)OC(C)=O)[C@H](n2c(=O)sc3c(=O)[nH]c(N)nc32)O1` [Example 19, [1-[(2R,3S,5S)-2-(5-Amino-2,7-dioxo-6H-thiazolo[4,5-d]pyrimidin-3-yl)-5-[(1S)-1-hydroxypropyl]tetrahydrofuran-3-yl]-1-methyl-ethyl] acetate] gave an EC50 of 19 µM.

The compound `CC[C@H](O)[C@@H]1C[C@@H]([C@@H](C)OC(=O)c2ccccc2)[C@H](n2c(=O)sc3c(=O)[nH]c(N)nc32)O1` [Example 12, [(1R)-1-[(2R,3S,5S)-2-(5-Amino-2,7-dioxo-6H-thiazolo[4,5-d]pyrimidin-3-yl)-5-[(1S)-1-hydroxypropyl]tetrahydrofuran-3-yl]ethyl] benzoate] displayed an EC50 of 6.5 µM.

`Nc1nc2c(sc(=O)n2[C@@H]2O[C@H](CO)C[C@H]2C(O)c2ccccc2Cl)c(=O)[nH]1` (single isomer, unassigned) [Example 6-A] registered an EC50 of 79 µM.

In turn, `CC[C@H](O)[C@@H]1C[C@@H]([C@H](O)c2ccccc2)[C@H](n2c(=O)sc3c(=O)[nH]c(N)nc32)O1` (single isomer, unassigned) [Example 18-B] registered an EC50 of 9.7 µM.

Take `CC(O)[C@@H]1C[C@@H](CO)O[C@H]1n1c(=O)sc2c(=O)[nH]c(N)nc21` (single isomer, unassigned) [Example 1-B]: the EC50 turned out to be 39 µM.

Compound `CC[C@H](O)[C@@H]1C[C@@H]([C@@H](C)OC)[C@H](n2c(=O)sc3c(=O)[nH]c(N)nc32)O1` [Example 13, 5-Amino-3-[(2R,3S,5S)-5-[(1S)-1-hydroxypropyl]-3-[(1R)-1-methoxyethyl]tetrahydrofuran-2-yl]-6H-thiazolo[4,5-d]pyrimidine-2,7-dione] showed an EC50 of 36 µM.

`Nc1nc2c(sc(=O)n2[C@@H]2O[C@H](CO)C[C@H]2C(O)c2ccccc2)c(=O)[nH]1` (single isomer, unassigned) [Example 4-A]: the EC50 turned out to be 205 µM.

`COc1ccccc1C(O)[C@@H]1C[C@@H](CO)O[C@H]1n1c(=O)sc2c(=O)[nH]c(N)nc21` (single isomer, unassigned) [Example 5-A] had an EC50 of 111 µM.
